Measurements published in patent US10485584B2, “Supplement for cultivation of mammalian embryos” (Lekarska fakulta v Plzni, Univerzita Karlova (Faculty of …, priority 2017, dated 2019).
Marks after values point to notes of the source that are not given here.

What was measured:
Format in all cases: cell-based
porcine embryos = experiment: Embryonic development and blastocyst formation after 144 hr IVC
Experimental: (§1) Porcine ovaries were obtained from 6- to 8-month-old non-cycling gilts (a crossbreed of Landrace x Large White) at the local slaughterhouse (Jatky Plzen a.s., Plzen, Czech Republic) and transported to laboratory at 39° C. Cumulus-oocyte complexes (COCs) were collected from ovarian follicles with a diameter of 2-5 mm by aspiration with a 20-gauge needle and handled in HEPES-buffered Tyrode lactate medium containing 0.01% (w/v) polyvinyl alcohol (TL-HEPES-PVA). Only fully grown oocytes with evenly dense cytoplasm, surrounded by compact cumuli, were selected for IVM and washed in maturation medium. The medium used for IVM was modified tissue culture medium (mTCM) 199 (Gibco, Life Technologies, UK) supplemented with 0.1% PVA, 3.05 mM D-glucose, 0.91 mM sodium pyruvate, […], 0.5 μg·mL^−1 LH (Sigma-Aldrich, USA), 0.5 μg·mL^−1 FSH (Sigma), 10 ng·mL^−1 epidermal growth factor (EGF; Sigma), 10% porcine follicular fluid, 75 μg·mL^−1 penicillin G and 50 μg·mL^−1 streptomycin. After 22 h of culture, the COCs were cultured in TCM199 without LH and FSH for an additional 22 h. The COCs were cultured in 500 μL of the medium covered by mineral oil in a four-well Petri dish (Nunc, Denmark), at 39° C. and 5% CO2 in air (Abeydeera et al. Theriogenology 50:747-756, 1998).
(§2) After 44 h of IVM, cumulus cells were removed with 0.1% hyaluronidase in TL-HEPES-PVA and the metaphase II (MII) oocytes with extruded first polar body were selected for IVF. The oocytes were washed three-times with modified Tris-buffered medium (mTBM; Abeydeera et al. Theriogenology 50:747-756, 1998) with 0.2% bovine serum albumin (BSA; A7888; Sigma) and placed into 100 μL drops of mTBM, covered with mineral oil in a 35 mm Petri dish. The dishes were allowed to equilibrate at 38.5° C. and 5% CO2 for 30 min before spermatozoa were added for fertilization. Spermatozoa were prepared as follows: 1 mL liquid semen preserved in BTS-based extender was washed twice in phosphate buffered saline (PBS) with 0.1% PVA (PBS-PVA) at 1500 rpm for 5 min. The last wash was supplemented with MitoTracker CMTRos (400 nM; M7510, Invitrogen) for 10 min at 39° C., used to tag sperm mitochondria that associate with the paternal pronucleus inside the fertilized oocytes. Labeled spermatozoa were resuspended in mTBM ([…]) and 1 μL of this sperm suspension was added to the medium containing the oocytes to give a final sperm concentration of 2.5 or 5×10^5 spermatozoa mL^−1. Oocytes were co-incubated with spermatozoa for 5 to 6 h at 38.5° C. and 5% CO2 in air. Thereafter, oocytes were washed and transferred into 100 μL PZM3 medium (Yoshioka et al. Biol Reprod 66:112-119, 2002) containing 0.4% BSA (A6003; Sigma) for further culture for 22 h. Simultaneously, presumed zygotes were cultured in 500 μL of PZM3 medium for 144 hrs to reach blastocyst stage. PZM3 was supplemented with the object of invention, i.e. N-benzyl-3,5-dicarbethoxy-4-phenyl-1,4-dihydropyridine, diluted in DMSO. Vehicle control contained DMSO only in equal concentration (0.1%). Tested concentrations of the compound are 1.5 and 3 μM, based on preliminary experiments evaluating the range 0.3-30 μM (see Table 1).
(§3) Within the imaging of 22 h zygotes, an assessment of penetration rate, creation of paternal pronucleus/pronuclei and monospermic fertilization was performed. Embryo cleavage was assessed by microscopy at 144 h of IVC. After 144 h of IVC, embryos were fixed in 2% formaldehyde for 40 min at room temperature (RT), washed three times with PBS, permeabilized with PBS-Triton X-100 for 30 min, and stained with 2.5 μg/mL DAPI (DNA staining; Molecular Probes, Eugene, Oreg., USA) for 40 min. Embryo cleavage, blastocyst formation, and cell number per blastocyst were assessed under an Eclipse Ci fluorescence microscope (Nikon Co., Tokyo, Japan).
(§4) Data are presented as the mean±S.E.M. of at least three independent experiments. […]

[1] = tested on: porcine oocytes and zygotes; experiment: IVF results after 22 hr IVC (penetration rate, paternal pronucleus, monospermic fertilization)
Experimental: as §1, §2, §3, §4

[2] = tested on: H3K9me2/3 and H3K9ac in pronuclear chromatin of porcine zygotes; experiment: Zygote quality: methylation and acetylation of histone H3 on lysine K9 in pronuclear chromatin after IVF; conditions: related to untreated vehicle, DMSO = 1, preliminary data
Experimental: as §2

[3] = 3.0 μM, 22 hr IVC, calculated from penetrated oocytes

SMILES: Oc1ccc(C=Cc2cc(O)cc(O)c2)cc1 [Resveratrol, reference compound]
- Mean cell No. per blastocyst (mean ± SEM) (porcine embryos; 3 μM): 39.3 ± 11.3^a
- No. of blastocysts (porcine embryos; 3 μM): 4
- No. of cleaved oocytes (porcine embryos; 3 μM): 47
- blastocysts (mean % ± SEM) (porcine embryos; 3 μM): 6.2 ± 2.8%
- cleaved oocytes (mean % ± SEM) (porcine embryos; 3 μM): 67.7 ± 10.6%

SMILES: CCOC(=O)C1=CN(Cc2ccccc2)C=C(C(=O)OCC)C1c1ccccc1 [N-benzyl-3,5-dicarbethoxy-4-phenyl-1,4-dihydropyridine]
- Mean cell No. per blastocyst (mean ± SEM) (porcine embryos; 1.5 μM): 32.7 ± 2.5^a
- No. of blastocysts (porcine embryos; 1.5 μM): 10
- No. of cleaved oocytes (porcine embryos; 1.5 μM): 47
- blastocysts (mean % ± SEM) (porcine embryos; 1.5 μM): 14.5 ± 7.2%
- cleaved oocytes (mean % ± SEM) (porcine embryos; 1.5 μM): 70.2 ± 7.3%
- Mean cell No. per blastocyst (mean ± SEM) (porcine embryos; 3 μM): 38.4 ± 4.2^a
- No. of blastocysts (porcine embryos; 3 μM): 18
- No. of cleaved oocytes (porcine embryos; 3 μM): 44
- blastocysts (mean % ± SEM) (porcine embryos; 3 μM): 32.9 ± 8.1%
- cleaved oocytes (mean % ± SEM) (porcine embryos; 3 μM): 62.7 ± 7.1%
- efficiency compared with naturally occurring polyphenols (resveratrol) (porcine embryos; comparison with resveratrol): even more efficient than naturally occurring polyphenols
- penetrated oocytes (mean % ± SEM) ([1]; 3.0 μM, 22 hr IVC): 42.8%
- No. of monospermic fertilization [1, 3]: 39
- No. of oocyte with PPN [1, 3]: 76
- monospermic fertilization (mean % ± SEM) [1, 3]: 42.4 ± 10.4%
- oocyte with PPN (mean % ± SEM) [1, 3]: 82.6 ± 6.7%
- No. of penetrated oocytes ([1]; 3.0 μM, 22 hr IVC, of 215 oocytes): 92
- polyspermic fertilization ([1]; in the presence of compound, versus DMSO vehicle): higher polyspermic fertilization
- H3K9ac ([2]; 0.3 μM): 0.61
- H3K9me2/3 ([2]; 0.3 μM): 2.72
- H3K9ac ([2]; 3.0 μM): 0.63
- H3K9me2/3 ([2]; 3.0 μM): 1.64
- H3K9ac ([2]; 30 μM): 1.36
- H3K9me2/3 ([2]; 30 μM): 0.76
